Columns and labels:
Assay type in all cases: cell-based
[1] = target: Substance-P receptor (Homo sapiens, UniProt P25103); test: Binding affinity against recombinant human tachykinin receptor 1 in CHO cells using [3H]-Sar SP as radioligand
[2] = target: T1, Neuromedin-K receptor (Homo sapiens, UniProt P29371); test: Binding affinity against recombinant human tachykinin receptor 3 in CHO cells using [125I][MePhe]-NKB as radioligand
T1 sequence (P29371 whole entry): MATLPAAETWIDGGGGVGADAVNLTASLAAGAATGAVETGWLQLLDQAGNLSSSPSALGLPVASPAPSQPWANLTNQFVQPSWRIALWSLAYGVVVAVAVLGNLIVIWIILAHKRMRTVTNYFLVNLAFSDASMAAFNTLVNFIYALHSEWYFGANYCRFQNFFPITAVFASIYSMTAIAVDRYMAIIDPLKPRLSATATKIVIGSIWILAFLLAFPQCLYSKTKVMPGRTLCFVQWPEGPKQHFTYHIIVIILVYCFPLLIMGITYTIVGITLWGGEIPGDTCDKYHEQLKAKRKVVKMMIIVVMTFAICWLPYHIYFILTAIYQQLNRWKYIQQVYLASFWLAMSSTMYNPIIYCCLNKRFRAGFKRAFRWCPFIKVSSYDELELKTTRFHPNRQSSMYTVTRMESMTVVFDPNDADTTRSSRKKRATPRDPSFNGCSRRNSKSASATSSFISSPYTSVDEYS

[3] = target: T2, Substance-K receptor (Homo sapiens, UniProt P21452); test: Binding affinity against recombinant human tachykinin receptor 2 in CHO cells using [3H]-NKA as radioligand
T2 sequence (P21452 whole entry): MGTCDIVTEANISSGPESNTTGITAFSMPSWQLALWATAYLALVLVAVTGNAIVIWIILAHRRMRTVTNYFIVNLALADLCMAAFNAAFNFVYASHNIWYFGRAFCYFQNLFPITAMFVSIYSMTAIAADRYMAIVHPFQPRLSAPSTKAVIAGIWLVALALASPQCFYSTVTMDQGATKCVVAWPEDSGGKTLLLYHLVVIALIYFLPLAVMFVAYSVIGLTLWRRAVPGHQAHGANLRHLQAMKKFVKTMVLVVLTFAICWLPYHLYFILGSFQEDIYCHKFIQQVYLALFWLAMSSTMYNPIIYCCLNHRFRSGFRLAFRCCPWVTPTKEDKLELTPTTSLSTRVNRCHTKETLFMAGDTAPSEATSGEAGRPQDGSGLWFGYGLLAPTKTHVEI

Substance-P receptor, sequence (P25103 whole entry): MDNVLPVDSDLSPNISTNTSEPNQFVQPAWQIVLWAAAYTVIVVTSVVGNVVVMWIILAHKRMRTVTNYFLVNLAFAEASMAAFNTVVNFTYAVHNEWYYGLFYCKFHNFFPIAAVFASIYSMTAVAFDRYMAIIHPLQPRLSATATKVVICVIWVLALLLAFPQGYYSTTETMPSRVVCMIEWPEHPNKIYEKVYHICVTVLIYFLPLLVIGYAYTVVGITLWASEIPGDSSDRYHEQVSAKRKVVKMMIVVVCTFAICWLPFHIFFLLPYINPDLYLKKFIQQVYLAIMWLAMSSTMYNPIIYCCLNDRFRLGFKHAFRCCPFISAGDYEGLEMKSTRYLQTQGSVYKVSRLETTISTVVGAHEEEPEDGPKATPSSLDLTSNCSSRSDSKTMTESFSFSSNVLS

| Compound | Ki [1] | Ki [2] | Ki [3] |
| --- | --- | --- | --- |
| CCN(C/C(=N\OC)[C@H](CCN1CCC(n2c(=O)n(CCOC)c3ccccc32)CC1)c1ccc(Cl)c(Cl)c1)C(=O)c1cc(Cl)cc(Cl)c1 | 2 nM | 572 nM | 4 nM |
| CCN(C/C(=N\OC)[C@H](CCN1CCC(n2c(=O)[nH]c3ccccc32)CC1)c1ccc(Cl)c(Cl)c1)C(=O)c1cc(Cl)cc(Cl)c1 | 2.5 nM | 97 nM | 2.6 nM |
| CO/N=C(\CN(C)C(=O)c1cc(Cl)cc(Cl)c1)[C@H](CCN1CCC(n2c(=O)n(C)c3ccccc32)CC1)c1ccc(Cl)c(Cl)c1 |  | 20 nM |  |
| CCN(C/C(=N\OC)[C@H](CCN1CCC(n2c(=O)n(CC(=O)O)c3ccccc32)CC1)c1ccc(Cl)c(Cl)c1)C(=O)c1cc(Cl)cc(Cl)c1 | 2.4 nM | 176 nM | 5.2 nM |
| CO/N=C(\CN(CCF)C(=O)c1cc(Cl)cc(Cl)c1)[C@H](CCN1CCC(n2c(O)nc3ccccc32)CC1)c1ccc(Cl)c(Cl)c1 | 3.2 nM | 231 nM | 4.9 nM |
| CO/N=C(\CN(C)C(=O)c1cc(Cl)cc(Cl)c1)[C@H](CCN1CCC(N2CCCN(CC(C)(C)O)C2=O)CC1)c1ccc(Cl)c(Cl)c1 |  |  | 0.8 nM |
| CCN(C/C(=N\OC)[C@H](CCN1CCC(n2c(=O)n(Cc3ccccn3)c3ccccc32)CC1)c1ccc(Cl)c(Cl)c1)C(=O)c1cc(Cl)cc(Cl)c1 | 2.7 nM | 312 nM | 2.8 nM |
| CO/N=C(\CN(C(=O)c1cc(Cl)cc(Cl)c1)C1CC1)[C@H](CCN1CCC(n2c(O)nc3ccccc32)CC1)c1ccc(Cl)c(Cl)c1 | 157 nM | 103 nM | 2.5 nM |
| CO/N=C(\CN(CCF)C(=O)c1cc(Cl)cc(Cl)c1)[C@H](CCN1CCC(n2c(=O)n(CC(=O)O)c3ccccc32)CC1)c1ccc(Cl)c(Cl)c1 | 1.2 nM | 304 nM | 3.1 nM |
| CCNC(=O)Cn1c(=O)n(C2CCN(CC[C@@H](/C(CN(CC)C(=O)c3cc(Cl)cc(Cl)c3)=N/OC)c3ccc(Cl)c(Cl)c3)CC2)c2ccccc21 | 3 nM | 281 nM | 3.6 nM |
| CO/N=C(\CN(C)C(=O)c1cc(Cl)cc(Cl)c1)[C@H](CCN1CCC(n2c(=O)[nH]c3ccccc32)CC1)c1ccc(Cl)c(Cl)c1 |  | 10 nM |  |
| CCN(C/C(=N\OC)[C@H](CCN1CCC(n2c(=O)n(CC(=O)NCCOC)c3ccccc32)CC1)c1ccc(Cl)c(Cl)c1)C(=O)c1cc(Cl)cc(Cl)c1 | 1.9 nM | 945 nM | 4.1 nM |
| CO/N=C(\CN(C)C(=O)c1cc(Cl)cc(Cl)c1)[C@H](CCN1CCC(N2CCCN(CC(=O)OCc3ccccc3)C2=O)CC1)c1ccc(Cl)c(Cl)c1 | 1 nM | 11.8 nM | 1.2 nM |
| CCOC(=O)[C@@H](Cc1ccc(O)cc1)N1CCCN(C2CCN(CC[C@@H](/C(CN(C)C(=O)c3cc(Cl)cc(Cl)c3)=N/OC)c3ccc(Cl)c(Cl)c3)CC2)C1=O | 1.6 nM | 10.9 nM | 1.2 nM |
| CCN(C/C(=N\OC)[C@H](CCN1CCC(n2c(=O)n(CC#N)c3ccccc32)CC1)c1ccc(Cl)c(Cl)c1)C(=O)c1cc(Cl)cc(Cl)c1 | 2.3 nM | 674 nM | 2.5 nM |
| CCN(C/C(=N\OC)[C@H](CCN1CCC(n2c(=O)n(CC(N)=O)c3ccccc32)CC1)c1ccc(Cl)c(Cl)c1)C(=O)c1cc(Cl)cc(Cl)c1 | 2.4 nM | 167 nM | 4.8 nM |
| CO/N=C(\CN(C)C(=O)c1cc(Cl)cc(Cl)c1)[C@H](CCN1CCC(n2c(=O)n(CC(=O)O)c3ccccc32)CC1)c1ccc(Cl)c(Cl)c1 | 1.3 nM | 11 nM | 1.7 nM |
| CO/N=C(\CN(C)C(=O)c1cc(Cl)cc(Cl)c1)[C@H](CCN1CCC(n2c(=O)n(CC(=O)OC)c3ccccc32)CC1)c1ccc(Cl)c(Cl)c1 | 1.3 nM | 29 nM | 1.8 nM |

Results, then the compound that gave them:

| Ki [1] | Ki [2] | Ki [3] | Compound |
| --- | --- | --- | --- |
| 0.6 nM | 0.3 nM | 0.5 nM | CO/N=C(\CN(C)C(=O)c1cc(Cl)cc(Cl)c1)[C@H](CCN1CCC(N2CCCN([C@H](CO)C(N)=O)C2=O)CC1)c1ccc(Cl)c(Cl)c1 |
|  | 2 nM |  | CO/N=C(\CN(C)C(=O)c1cc(Cl)cc(Cl)c1)[C@H](CCN1CCC(N2CCCN(Cc3nnn[nH]3)C2=O)CC1)c1ccc(Cl)c(Cl)c1 |
| 1.1 nM | 2.2 nM | 1.1 nM | CO/N=C(\CN(C)C(=O)c1cc(Cl)cc(Cl)c1)[C@H](CCN1CCC(N2CCCN(Cc3ccoc3)C2=O)CC1)c1ccc(Cl)c(Cl)c1 |
| 0.9 nM | 1.3 nM | 1.2 nM | CNC(=O)CN1CCCN(C2CCN(CC[C@@H](/C(CN(C)C(=O)c3cc(Cl)cc(Cl)c3)=N/OC)c3ccc(Cl)c(Cl)c3)CC2)C1=O |
| 0.6 nM | 0.5 nM | 0.8 nM | CO/N=C(\CN(C)C(=O)c1cc(Cl)cc(Cl)c1)[C@H](CCN1CCC(N2CCCN(CC(=N)NO)C2=O)CC1)c1ccc(Cl)c(Cl)c1 |
| 0.8 nM | 0.5 nM | 0.9 nM | CO/N=C(\CN(C)C(=O)c1cc(Cl)cc(Cl)c1)[C@H](CCN1CCC(N2CCCN(N3CCOCC3)C2=O)CC1)c1ccc(Cl)c(Cl)c1 |
| 0.8 nM | 0.3 nM | 0.4 nM | CO/N=C(\CN(C)C(=O)c1cc(Cl)cc(Cl)c1)[C@H](CCN1CCC(N2CCCN(C(C)(C)C(N)=O)C2=O)CC1)c1ccc(Cl)c(Cl)c1 |
| 0.4 nM | 0.8 nM | 0.7 nM | CO/N=C(\CN(C)C(=O)c1cc(Cl)cc(Cl)c1)[C@H](CCN1CCC(N2CCCN(C)C2=O)CC1)c1ccc(Cl)c(Cl)c1 |
| 0.9 nM | 0.6 nM | 0.8 nM | CO/N=C(\CN(C)C(=O)c1cc(Cl)cc(Cl)c1)[C@H](CCN1CCC(N2CCCN(C(C)C)C2=O)CC1)c1ccc(Cl)c(Cl)c1 |
| 0.7 nM | 0.8 nM | 0.7 nM | CO/N=C(\CN(C)C(=O)c1cc(Cl)cc(Cl)c1)[C@H](CCN1CCC(N2CCCN(Cc3ccccn3)C2=O)CC1)c1ccc(Cl)c(Cl)c1 |
| 2.4 nM | 3.2 nM | 1.2 nM | CO/N=C(\CN(C)C(=O)c1cc(Cl)cc(Cl)c1)[C@H](CCN1CCC(N2CCCN(Cc3ccsc3)C2=O)CC1)c1ccc(Cl)c(Cl)c1 |
| 1.9 nM | 0.5 nM | 0.5 nM | CO/N=C(\CN(C)C(=O)c1cc(Cl)cc(Cl)c1)[C@H](CCN1CCC(N2CCCN(c3ccccn3)C2=O)CC1)c1ccc(Cl)c(Cl)c1 |
| 1.3 nM | 0.3 nM | 0.4 nM | CNC(=O)C[C@H]1CCCN(C2CCN(CC[C@@H](/C(CN(C)C(=O)c3cc(Cl)cc(Cl)c3)=N/OC)c3ccc(Cl)c(Cl)c3)CC2)C1=O |
| 1 nM | 0.7 nM | 0.7 nM | CO/N=C(\CN(C)C(=O)c1cc(Cl)cc(Cl)c1)[C@H](CCN1CCC(N2CCCN(O)C2=O)CC1)c1ccc(Cl)c(Cl)c1 |
| 0.3 nM | 0.4 nM | 0.2 nM | CO/N=C(\CN(C)C(=O)c1cc(Cl)cc(Cl)c1)[C@H](CCN1CCC(N2CCCN(CC(N)=O)C2=O)CC1)c1ccc(Cl)c(Cl)c1 |
| 0.6 nM | 0.4 nM | 0.5 nM | CO/N=C(\CN(C)C(=O)c1cc(Cl)cc(Cl)c1)[C@H](CCN1CCC(N2CCCN(CCNS(C)(=O)=O)C2=O)CC1)c1ccc(Cl)c(Cl)c1 |

From ChEMBL document CHEMBL1134890, “Preparation of oxime dual NK(1)/NK(2) antagonists with reduced NK(3) affinity” (Bioorg Med Chem Lett, 2002)
